Values quoted from earlier work as cited in patent publication US20230321114A1, “METHODS OF TREATING AGE-RELATED COGNITIVE DECLINE” (Woolsey Pharmaceuticals, Inc., priority 2020, published 2023).

How the values were obtained:
memory in aging rats = settings: eighteen-month old rats, 0.1875 or 0.3750 mg per day, single daily injection
[1] = in vivo, metabolite

In the case of O=S(=O)(c1cccc2c(O)nccc12)N1CCCNCC1 [hydroxyfasudil], the spatial reference memory (memory in aging rats; Morris Water Maze) is given as “not in spatial reference memory”, the working memory (memory in aging rats; Morris Water Maze (radial maze)) is given as “improvements in working memory” and the half-life [1] is given as “about 8 hours”.
